“Also recorded” adds a separate entry of the source.
Legend:
[1] = target: T1, Thioredoxin Reductase (Bos taurus, UniProt O62768); assay: NADPH oxidation at 340 nm, thioredoxin reductase only; assay type: biochemical, bovine
T1 sequence (O62768 1-499): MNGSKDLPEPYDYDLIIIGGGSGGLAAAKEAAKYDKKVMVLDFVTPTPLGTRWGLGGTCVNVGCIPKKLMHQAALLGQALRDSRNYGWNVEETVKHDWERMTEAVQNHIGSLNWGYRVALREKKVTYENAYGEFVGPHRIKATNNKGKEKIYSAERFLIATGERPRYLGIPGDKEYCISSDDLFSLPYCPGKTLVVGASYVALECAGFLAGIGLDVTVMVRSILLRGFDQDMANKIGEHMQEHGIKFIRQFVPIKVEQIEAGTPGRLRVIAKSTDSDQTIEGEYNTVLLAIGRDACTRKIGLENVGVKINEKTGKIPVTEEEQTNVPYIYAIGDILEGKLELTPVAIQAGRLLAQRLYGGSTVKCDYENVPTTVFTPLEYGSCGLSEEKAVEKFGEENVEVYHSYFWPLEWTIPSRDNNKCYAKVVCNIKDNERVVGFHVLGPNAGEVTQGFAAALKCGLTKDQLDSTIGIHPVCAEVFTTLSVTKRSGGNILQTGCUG
Procedure: Biochemistry 21:6628-6633 (1982).
Data was then collected and plotted in Microsoft Excel. Error calculations, and graphical representations were performed in Microsoft Excel and Kaleidograph (ver. 3.5). Nonlinear data was graphically rendered using Kaleidograph. ANOVA and other statistical analyses were performed using SAS (ver. 8.2). Unless otherwise noted, significance level was set at 0.05, and error bars represent actual experimental standard deviation.
It should be noted that for the purposes of FIG. 17 only, thioredoxin is labeled TXR and thioredoxin reductase is labeled TRR.

[2] = target: T2, glutathione reductase (GR) (Homo sapiens, UniProt P00390); assay: NADPH oxidation, glutathione reductase (GR) alone; assay type: biochemical
T2 sequence (P00390 44-522): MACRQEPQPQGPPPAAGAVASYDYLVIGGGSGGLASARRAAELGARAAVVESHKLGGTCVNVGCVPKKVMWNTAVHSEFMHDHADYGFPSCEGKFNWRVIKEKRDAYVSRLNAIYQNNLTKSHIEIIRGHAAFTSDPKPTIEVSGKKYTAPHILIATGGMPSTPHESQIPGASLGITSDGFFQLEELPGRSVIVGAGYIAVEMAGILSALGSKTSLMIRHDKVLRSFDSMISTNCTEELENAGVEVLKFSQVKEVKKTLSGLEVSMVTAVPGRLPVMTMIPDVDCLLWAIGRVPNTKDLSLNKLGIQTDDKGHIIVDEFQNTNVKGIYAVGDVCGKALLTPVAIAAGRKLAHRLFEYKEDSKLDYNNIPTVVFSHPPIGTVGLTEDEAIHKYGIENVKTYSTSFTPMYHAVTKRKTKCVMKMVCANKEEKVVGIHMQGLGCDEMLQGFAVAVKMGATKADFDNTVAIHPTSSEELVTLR
Procedure: The Formula (I) compound was utilized at a concentration of 0.5 mM.

[3] = system: human breast, ovarian and lymphoma cancer cell lines; assay: interference with paclitaxel induced apoptosis (PARP cleavage, Bcl-2 phosphorylation, DNA laddering); assay type: cell-based; details: in vitro
Source text: (§1) An important element of Tavocept's™ effectiveness as a compound in the treatment of cancer is its selectivity for normal cells versus cancer cells and its inability to interfere with the anti-cancer activity of chemotherapeutic agents.

[4] = system: human cancer cell lines; assay: interference with paclitaxel and platinum induced cytotoxicity; assay type: cell-based
Source text: as §1

[5] = system: non-small cell lung carcinoma (NSCLC) cell lines; assay: cytotoxicity study in combination with chemotherapeutic agents, NSCLC cell lines; assay type: cell-based, human; details: Tavocept in combination with cisplatin vs cisplatin only controls
[6] = system: patients with advanced non-small cell lung carcinoma (NSCLC), including the adenocarcinoma sub-type; assay: Japan Phase III Clinical Trial (paclitaxel + cisplatin with Tavocept or placebo); assay type: in vivo, human
Procedure: Patients admitted into the trial included those patients without previous treatment (excluding surgical treatment, administration of Picibanil into the serous membrane, irradiation of 30% or less hematopoietic bone, or oral chemotherapeutic agents within 3 months of entry in the trial).
The Japan Phase III Clinical Trial was conducted as a double-blind study because peripheral neuropathy is diagnosed based on subjective symptoms evaluated through clinical interviews, lab tests, and the like. Accordingly, evaluations by both physicians and patients are highly important. […] A placebo was used as control since there is no established therapy or drug for preventing peripheral neuropathy. Because the severity of peripheral neuropathy is evaluated based on patient's reports (i.e., subjective symptoms), the Peripheral Neuropathy Questionnaire (PNQ©) was used in primary evaluation. CIPN-20 and NCI-CTC were used in secondary evaluation. The incidence and severity of adverse reactions, time to their onset, etc. and the like, were compared between patients treated with Tavocept™ and those given a placebo using the aforementioned methods.

[7] = system: patients with advanced stage (IIIB/IV) non-small cell lung carcinoma (NSCLC), including the adenocarcinoma sub-type; assay: U.S. Phase II NSCLC Clinical Trial (dose-dense docetaxel + cisplatin with or without Tavocept); assay type: in vivo, human
Procedure: Darbepoetin alfa (200 μg; subcutaneous administration) was administered on day one of the chemotherapy cycle and pegfilgrastim (6 mg subcutaneous administration) was administered on day two of the chemotherapy cycle if the patient's hemoglobin levels were ≦11 g/dL. The aforementioned chemotherapy cycle was repeated every two weeks, for up to a total of six cycles.

[8] = FIG. 7, Tavocept arm (5 in the placebo arm)
[9] = adenocarcinoma patients in the Tavocept arm
[10] = FIG. 13, Tavocept arm versus non-Tavocept arm
[11] = FIG. 14, adenocarcinoma patients, Tavocept vs non-Tavocept arm
[12] = FIG. 15, Tavocept arm versus non-Tavocept arm

For `O=S(=O)([O-])CCSSCCS(=O)(=O)[O-].[Na+].[Na+]` [Tavocept™, disodium 2,2′-dithio-bis-ethane sulfonate], the “NADPH Oxidation, Thioredoxin Reductase only” value ([1]; Disulfide 0.5 mM, minimum of triplicate assays) was 0.3 ± 0.01 nmol/min/mL, the “NADPH oxidation by TXR in the absence of TX” value ([1]; FIG. 17) was “indistinguishable from background” and the “substrate for thioredoxin reductase alone” value ([1]; result in words) was “not thioredoxin reductase alone; also recorded: not for TXR”. The “NADPH Oxidation, GR” value ([2]; Disulfide 0.5 mM, n = 6) was 0.0 ± 0.01 nmol/min/mL, the “substrate / alternative substrate inhibitor for glutathione reductase” value ([2]; result in words) was “not a substrate” and the “interference with paclitaxel induced apoptosis” value [3] was “does not interfere”. The “interference with paclitaxel and platinum induced cytotoxicity” value [4] was “did not interfere”, the cell death [5] was “increase in cell death” and the “reduction in severe (Grade D or E) peripheral neuropathy (PNQ, Primary Endpoint)” value ([6]; FIG. 5, paclitaxel/Tavocept/cisplatin regimen vs paclitaxel/saline placebo/cisplatin regimen, NSCLC patients) was roughly 50%. The “patients with Grade 3 (severe) decrease in hematocrit levels” value [6, 8] was 1 patients, the “patients with Grade 3 (severe) decrease in red blood cell levels” value [6, 8] was 1 patients and the “patients with Grade 3 (severe) decrease in hemoglobin” value ([6]; FIG. 7, Tavocept arm (8 in the placebo arm)) was 2 patients. The “response rate as measured by the IRC” value ([6]; FIG. 8, Tavocept arm (28.6% in the placebo arm)) was 33.3%, the “Response Rate, as measured by physicians (Doctor)” value ([6]; FIG. 8, Tavocept arm (33.0% in the placebo arm)) was 41.9% and the “increase in median survival time” value ([6]; FIG. 9, NSCLC patients incl. adenocarcinoma, paclitaxel/Tavocept/cisplatin vs paclitaxel/saline placebo/cisplatin) was “up to 40 days”. The “survival period, female patient population” value ([6]; FIG. 10, female NSCLC patients, paclitaxel/Tavocept/cisplatin vs paclitaxel/saline placebo/cisplatin) was “longer survival period”, the “increase in median survival time, adenocarcinoma patients” value (“increase … adenocarcinoma patients” below) ([6]; FIG. 11, adenocarcinoma sub-type, paclitaxel/Tavocept/cisplatin vs paclitaxel/saline placebo/cisplatin) was “up to 138 days” and the “increase … adenocarcinoma patients” value ([6]; FIG. 11, adenocarcinoma sub-type, paclitaxel/Tavocept/cisplatin vs paclitaxel/saline placebo/cisplatin, listed as Tavocept) was “approximately 138 days”. The “chemotherapy-induced vomiting/emesis and kidney damage” value ([6]; Tavocept and chemotherapy vs chemotherapy and placebo, result in words) was “medically-important reductions”, the “increase … adenocarcinoma patients” value [6, 9] was roughly 4.5 months and the “median patient survival (time to death)” value ([7]; FIG. 12, NSCLC incl. adenocarcinoma, Tavocept arm (10.74 months non-Tavocept arm), 95% confidence limit) was 11.66 months. For the same molecule, the “hazard ratio, survival” value ([7]; FIG. 12, NSCLC incl. adenocarcinoma, Tavocept vs non-Tavocept arm) was 0.750, the “increase in patient survival” value ([7]; FIG. 12, NSCLC, Tavocept arm versus non-Tavocept arm) was 0.92 month and the “patient progression-free survival (PFS)” value ([7]; FIG. 13, Tavocept arm (9.25% non-Tavocept arm), 95% confidence interval) was 18.7%. The “overall patient one-year survival (OS) rate” value ([7]; FIG. 13, Tavocept arm (39.5% non-Tavocept arm), 95% confidence interval) was 50.7%, the “increase in overall patient one-year survival (OS) rates” value [7, 10] was 11.2% and the “increase in patient progression-free survival (PFS)” value [7, 10] was 9.5%. For the same molecule, the “median patient survival (time to death), adenocarcinoma” value ([7]; FIG. 14, adenocarcinoma patients, Tavocept arm (9.10 months non-Tavocept arm), 95% confidence limit) was 15.64 months, the “increase in patient survival, adenocarcinoma” value ([7]; FIG. 14, adenocarcinoma patients, Tavocept arm versus non-Tavocept arm) was 6.54 months and the “increase in patient survival, adenocarcinoma” value ([7]; FIG. 14, adenocarcinoma patients, Tavocept arm versus non-Tavocept arm, listed as Tavocept) was roughly 6.5 months. The “hazard ratio, survival, adenocarcinoma” value [7, 11] was 0.601, the “reduction in the patient mortality rate, adenocarcinoma” value [7, 11] was 40% and the “reduction in dehydration (Grade 3 and Grade 4 treatment-related adverse events)” value [7, 12] was 50%. For the same molecule, the “reduction in hypomagnesaemia (Grade 3 and Grade 4 treatment-related adverse events)” value [7, 12] was 100%, the “reduction in nausea (Grade 3 and Grade 4 treatment-related adverse events)” value [7, 12] was 38.5% and the “reduction in vomiting (Grade 3 and Grade 4 treatment-related adverse events)” value [7, 12] was 71.5%. The “increase … adenocarcinoma patients” value [7, 9] was “approximately 198 days”.

From US9320760B2, “Compositions and methods of use of compounds to increase cancer patient survival time” (BioNumerik Pharmaceuticals, Inc., priority 2008, dated 2016)
